2 compounds from patent US20240349725A1, “FORMULATION COMPRISING AN ACID FUNCTION ACTIVE INGREDIENT, ESTER FUNCTION ACTIVE INGREDIENT AND SALT AND/OR CHEMICALLY LABILE ACTIVE INGREDIENT, THE USE THEREOF AND METHOD OF PRODUCTION” (Iharabrás S.A. Indústrias Químicas, priority 2021, published 2024) can be followed below.

The data set in a line: In-house compatibility observations of the actives with acids / 2,4-D amine salt solution. Type of data set: physicochemical. The source says: Secondary amine salt formulations diethanolamine, diisopropanolamine) of 2,4-D and other herbicides containing a carboxylic acid function (2,4,5-T, ticlopyr, dicamba, picloram, aminopyralid, others) are extremely hydrophilic, being normally conveyed as a concentrated aqueous solution of high pH to avoid crystallization of the salt/free acid. […] As discussed, these active ingredients have physical-chemical features that make it difficult for them to be used together in the same formulation. In addition to this is the easy decomposition through base-catalyzed hydrolysis, of active ingredients containing the ester function, such as lactofen, if they were soluble or emulsified in an alkaline solution, as is the case of the aqueous solution of amine salts of 2,4-D. This effect was observed when lactofen was dissolved in a naphthenic organic solvent and then emulsified in a solution of 2,4-D dimethylamine salt. Shortly afterwards, lactofen had been decomposed even under mild temperature conditions, which made it impossible to provide this mixture under these conditions as a commercial product. It is also mentioned that, although the degradation kinetics may be different, compounds containing an ester group, such as lactofen, can also undergo solvolysis (hydrolysis if the solvent is water) in the presence of acids, which makes it impossible for lactofen to be transported with 2,4-D without neutralization of the latter by an alkaline compound. Bispyribac sodium is also a compound that easily degrades under different conditions. […] Bispyribac sodium is also known to only remain stable at pH levels close to neutral or slightly alkaline (7 to 9) and at temperatures around 25° C. and in the dark, with an acceleration of degradation under conditions other than these. These features of lactofen and bispyribac sodium make it difficult for one to develop formulations with other active ingredients, which may justify the absence of commercial products with these associated active ingredients.

Regarding `COc1cc(OC)nc(Oc2cccc(Oc3nc(OC)cc(OC)n3)c2C(=O)O)n1` [Bispyribac sodium, bispyribac sodium], the “degradation in the presence of acids” value (even in the absence of water, observed internally) is reported as “degrades easily”. Besides, the “degradation in the presence of unneutralized 2,4-D” value (high acidity of 2,4-D) is “fully degraded”.

As to `CCOC(=O)C(C)OC(=O)c1cc(Oc2ccc(C(F)(F)F)cc2Cl)ccc1[N+](=O)[O-]` (stereo not drawn) [Lactofen, lactofen], the “decomposition when emulsified in a solution of 2,4-D dimethylamine salt” value (dissolved in naphthenic organic solvent, emulsified in 2,4-D dimethylamine salt solution, mild temperature) is recorded as “decomposed”.
